# Measurements: article PMC4203866, “Identification of plant-derived natural products as potential inhibitors of the Mycobacterium tuberculosis proteasome” (BMC Complementary and Alternative Medicine, 2014)
# pIC50: −log10 of the molar value.
# Molecular target: T1, Mtb proteasome (Mycobacterium tuberculosis, UniProt P9WHT9)
# T1 construct: Proteasome activity of the supernatants was assessed; endogenous in cells; host or cells: Mycobacterium tuberculosis H37Ra (crude lysate supernatant)
# Assay: biochemical
# Settings: not given
# T1 sequence (P9WHT9 58-291): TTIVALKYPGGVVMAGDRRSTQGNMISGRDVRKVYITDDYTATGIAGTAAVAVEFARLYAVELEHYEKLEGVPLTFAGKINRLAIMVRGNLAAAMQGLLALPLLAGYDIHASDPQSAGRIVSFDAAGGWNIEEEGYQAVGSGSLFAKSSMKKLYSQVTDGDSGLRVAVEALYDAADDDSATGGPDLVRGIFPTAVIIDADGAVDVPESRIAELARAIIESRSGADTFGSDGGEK
# T1 sequence (P9WHU1 whole entry partner): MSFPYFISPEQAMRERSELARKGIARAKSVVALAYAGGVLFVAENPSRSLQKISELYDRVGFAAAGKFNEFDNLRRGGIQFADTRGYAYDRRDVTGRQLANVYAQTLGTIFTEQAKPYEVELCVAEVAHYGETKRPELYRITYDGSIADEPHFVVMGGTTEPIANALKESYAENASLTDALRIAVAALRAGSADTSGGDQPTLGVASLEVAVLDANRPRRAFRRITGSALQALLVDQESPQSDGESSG
Compound,pIC50,IA: inhibitory activity of Mtb proteasome
COc1ccc(-c2cc(=O)c3c(O)c(OC)c(O[C@@H]4O[C@H](CO[C@@H]5O[C@@H](C)[C@H](O)[C@@H](O)[C@H]5O)[C@@H](O)[C@H](O)[C@H]4O)cc3o2)cc1 [pectolinarin],4.30,–
C[C@H]1CC[C@@H]2N(C1)C[C@H]1[C@@H]3C[C@H]4[C@@H](C[C@H](O)[C@H]5C[C@@H](O)CC[C@@]54C)[C@@H]3CC[C@@H]1[C@]2(C)O [peimine],–,3.05%
C/C=C(/C)C(=O)O[C@H]1[C@@H](OC(C)=O)c2c(ccc3ccc(=O)oc23)OC1(C)C [praeruptorin A],–,0.00%
COC(=O)c1c2c(c3ccccc3c1O)OC(C)(C)C=C2 [rubimaillin],–,46.37%
C=C[C@H]1[C@H](O[C@@H]2O[C@H](CO)[C@@H](O)[C@H](O)[C@H]2O)OC=C2C(=O)OCC[C@]21O [swertiamain],–,14.39%
CC1=C(O)C(=O)C=C2C1=CC=C1[C@@]2(C)CC[C@@]2(C)[C@@H]3C[C@](C)(C(=O)O)CC[C@]3(C)CC[C@]12C [tripterine],3.94,–
COc1c(O[C@@H]2O[C@H](C(=O)O)[C@@H](O)[C@H](O)[C@H]2O)cc(O)c2c(=O)cc(-c3ccccc3)oc12 [wogonoside],–,59.01%
asiaticoside,–,0.00%
dipsacoside,–,0.00%
evodine,–,31.77%
madecassoside,–,0.00%
martin hydrochloride,–,43.66%
silmyarin,–,0.00%
tubeimoside A,–,0.00%

# Same assay, conditions: 0.5 h, read-out: IA: inhibitory activity of Mtb proteasome
row,Compound,inhibition at 200 µM
1,OC[C@H]1O[C@@H](Oc2cc(O)cc(/C=C/c3ccc(O)cc3)c2)[C@H](O)[C@@H](O)[C@@H]1O [polydatin],0%
2,O=c1c(-c2ccc(O)cc2)coc2c([C@@H]3O[C@H](CO)[C@@H](O)[C@H](O)[C@H]3O)c(O)ccc12 [puerarin],0%
3,O=c1c(O)c(-c2ccc(O)c(O)c2)oc2cc(O)cc(O)c12 [quercetin],> 65%
4,Oc1ccc(/C=C/c2cc(O)cc(O)c2)cc1 [resveratrol],0%
5,C[C@@H]1O[C@@H](OC[C@H]2O[C@@H](Oc3c(-c4ccc(O)c(O)c4)oc4cc(O)cc(O)c4c3=O)[C@H](O)[C@@H](O)[C@@H]2O)[C@H](O)[C@H](O)[C@H]1O [rutin],0%
6,OCc1ccccc1O[C@@H]1O[C@H](CO)[C@@H](O)[C@H](O)[C@H]1O [salicin],0%
7,OC[C@H]1O[C@@H](OCCc2ccc(O)cc2)[C@H](O)[C@@H](O)[C@@H]1O [salidroside],34%
8,C[C@H]1CC[C@@]2(OC1)O[C@H]1C[C@H]3[C@@H]4CC[C@@H]5C[C@@H](O)CC[C@]5(C)[C@H]4CC[C@]3(C)[C@H]1[C@@H]2C [sarsasapogenin],0%
9,COc1cc2ccc(=O)oc2cc1OC [scoparone],0%
10,O=C(O)C1=C[C@@H](O)[C@@H](O)[C@H](O)C1 [shikimicacid],0%
11,COC1=C[C@@H]2[C@@H]3Cc4ccc(OC)c(O)c4[C@]2(CCN3C)CC1=O [sinomenine],3.77%
12,O=C1CCC[C@@H]2[C@H]3CCCN4CCC[C@H](CN12)[C@@H]34 [sophoridine],11.8%
13,O=C1C[C@@H]2OCC=C3CN4CC[C@]56c7ccccc7N1[C@H]5[C@H]2[C@H]3C[C@H]46 [strychnine],0%
14,COc1cc(C(=O)O)cc(OC)c1O [syringic acid],0%
15,COc1c(O[C@@H]2O[C@H](CO)[C@@H](O)[C@H](O)[C@H]2O)cc2occ(-c3ccc(O)cc3)c(=O)c2c1O [tectoridin],0%
16,CC1=C(O)C(=O)C=C2C1=CC=C1[C@@]2(C)CC[C@@]2(C)[C@@H]3C[C@](C)(C(=O)O)CC[C@]3(C)CC[C@]12C [tripterine],> 65%
17,O=c1ccc2ccc(O)cc2o1 [umbelliferone],0%
18,COc1c(O)cc(O)c2c(=O)cc(-c3ccccc3)oc12 [wogonin],54%
